Assay results: ChEMBL document CHEMBL4265909, “Synthesis and biological evaluation of novel 5,6-dihydropyrimido[4,5-f]quinazoline derivatives as potent CDK2 inhibitors” (Bioorg Med Chem Lett, 2018)

Experiments:
[1] = test system: HCT-116; assay: Antiproliferative activity against human HCT116 cells after 24 hrs by MTT assay; format: functional, cell-based; details: HCT-116, 24 h
[2] = molecular target: CDK2/Cyclin A2 (Homo sapiens, UniProt P24941); assay: Inhibition of full-length human CDK2/N-terminal GST-tagged Cyclin A2 (1 to 432 residues) expressed in Baculovirus expression system using FAM-P8/P18 as substrate measured after 40 mins
[3] = test system: MCF7; assay: Antiproliferative activity against human MCF7 cells after 24 hrs by MTT assay; format: functional, cell-based; details: MCF7, 24 h
[4] = molecular target: Cyclin-dependent kinase 5 (Homo sapiens, UniProt Q00535); assay: Inhibition of CDK5 (unknown origin)
Chain of Cyclin-dependent kinase 5 (Q00535 whole entry): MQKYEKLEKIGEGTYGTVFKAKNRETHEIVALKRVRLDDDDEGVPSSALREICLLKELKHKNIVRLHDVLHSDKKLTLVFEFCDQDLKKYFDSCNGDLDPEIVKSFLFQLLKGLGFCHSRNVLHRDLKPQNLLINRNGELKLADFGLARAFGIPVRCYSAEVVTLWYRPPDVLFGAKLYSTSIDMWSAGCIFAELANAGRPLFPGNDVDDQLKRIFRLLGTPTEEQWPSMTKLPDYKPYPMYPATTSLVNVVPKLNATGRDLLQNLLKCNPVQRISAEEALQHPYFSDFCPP

[5] = molecular target: Cyclin-dependent kinase 6 (Homo sapiens, UniProt Q00534); assay: Inhibition of CDK6 (unknown origin)
Chain of Cyclin-dependent kinase 6 (Q00534 whole entry): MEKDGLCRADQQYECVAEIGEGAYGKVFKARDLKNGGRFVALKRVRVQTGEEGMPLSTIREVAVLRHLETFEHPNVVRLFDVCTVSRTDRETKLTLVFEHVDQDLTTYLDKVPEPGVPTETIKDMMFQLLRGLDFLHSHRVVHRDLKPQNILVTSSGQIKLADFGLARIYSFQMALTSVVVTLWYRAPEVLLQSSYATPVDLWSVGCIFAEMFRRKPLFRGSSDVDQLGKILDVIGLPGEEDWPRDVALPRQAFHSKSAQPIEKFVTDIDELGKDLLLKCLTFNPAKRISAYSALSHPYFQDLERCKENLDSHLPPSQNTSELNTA

[6] = molecular target: Cyclin-dependent kinase 4 (Homo sapiens, UniProt P11802); assay: Inhibition of CDK4 (unknown origin)
Chain of Cyclin-dependent kinase 4 (P11802 whole entry): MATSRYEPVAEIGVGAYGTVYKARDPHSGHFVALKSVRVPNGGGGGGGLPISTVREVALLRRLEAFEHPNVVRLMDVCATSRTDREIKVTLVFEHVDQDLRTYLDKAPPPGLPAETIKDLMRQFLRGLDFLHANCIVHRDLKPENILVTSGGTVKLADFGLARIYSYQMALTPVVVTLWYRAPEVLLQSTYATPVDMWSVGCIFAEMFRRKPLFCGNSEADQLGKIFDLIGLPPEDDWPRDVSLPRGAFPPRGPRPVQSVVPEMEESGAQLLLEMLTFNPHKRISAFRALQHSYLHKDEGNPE

[7] = molecular target: Cyclin-dependent kinase 1 (Homo sapiens, UniProt P06493); assay: Inhibition of CDK1 (unknown origin)
Chain of Cyclin-dependent kinase 1 (P06493 whole entry): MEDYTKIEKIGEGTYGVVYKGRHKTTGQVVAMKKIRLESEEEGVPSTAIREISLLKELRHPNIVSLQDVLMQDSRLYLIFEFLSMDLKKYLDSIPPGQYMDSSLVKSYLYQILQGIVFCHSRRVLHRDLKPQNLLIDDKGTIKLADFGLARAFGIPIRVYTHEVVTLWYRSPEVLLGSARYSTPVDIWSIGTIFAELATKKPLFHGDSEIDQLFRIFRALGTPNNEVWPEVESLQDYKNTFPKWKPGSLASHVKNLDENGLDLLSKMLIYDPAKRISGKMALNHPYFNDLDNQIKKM

[8] = molecular target: Cyclin-dependent kinase 7 (Homo sapiens, UniProt P50613); assay: Inhibition of CDK7 (unknown origin)
Chain of Cyclin-dependent kinase 7 (P50613 whole entry): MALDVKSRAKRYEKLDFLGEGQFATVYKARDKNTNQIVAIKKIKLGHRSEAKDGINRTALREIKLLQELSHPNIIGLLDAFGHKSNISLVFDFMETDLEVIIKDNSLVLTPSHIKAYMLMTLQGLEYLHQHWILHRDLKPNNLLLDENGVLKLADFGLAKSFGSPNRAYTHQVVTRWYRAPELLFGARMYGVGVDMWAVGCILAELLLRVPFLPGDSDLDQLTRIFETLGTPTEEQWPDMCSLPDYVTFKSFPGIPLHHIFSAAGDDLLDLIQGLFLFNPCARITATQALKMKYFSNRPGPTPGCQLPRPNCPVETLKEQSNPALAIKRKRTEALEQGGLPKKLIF

IC50 [1] [µM]	IC50 [2] [µM]	IC50 [3] [µM]	IC50 [4] [µM]	IC50 [5] [µM]	IC50 [6] [µM]	IC50 [7] [µM]	IC50 [8] [µM]	Structure (SMILES)
3.2	0.19	2.1						CSc1ncc2c(n1)CCc1cnc(Nc3ccc(C(=O)N4CCOCC4)cc3)nc1-2
17.2	3.7	19.4						CSc1ncc2c(n1)CCc1cnc(Nc3ccc(C(=O)N4CCN(C(=O)OC(C)(C)C)CC4)cc3)nc1-2
3.8	0.18	2.5						CSc1ncc2c(n1)CCc1cnc(Nc3ccc(C(=O)N4CCN(C)CC4)cc3)nc1-2
1.3	0.16	1.5						CSc1ncc2c(n1)CCc1cnc(Nc3ccc(C(=O)N4CCNCC4)cc3)nc1-2
12.8	0.98	17.8						CSc1ncc2c(n1)CCc1cnc(Nc3ccc(C(=O)O)cc3)nc1-2
14.3	1.25	25.4						CCOC(=O)c1ccc(Nc2ncc3c(n2)-c2cnc(SC)nc2CC3)cc1
> 30		> 30						Nc1ncc2c(n1)-c1cnc(Nc3ccc(C(=O)N4CCOCC4)cc3)nc1CC2
> 30	5.9	> 30						CN1CCN(C(=O)c2ccc(Nc3ncc4c(n3)CCc3cnc(N)nc3-4)cc2)CC1
> 30	3.2	> 30						CN(C)CCN(C)C(=O)c1ccc(Nc2ncc3c(n2)CCc2cnc(N)nc2-3)cc1
0.9	0.11	1.3						CSc1ncc2c(n1)CCc1cnc(Nc3ccc(C(N)=O)cc3)nc1-2
> 30		> 30						CCOC(=O)c1ccc(Nc2ncc3c(n2)CCc2cnc(N)nc2-3)cc1
> 30	1.85	> 30						Nc1ncc2c(n1)-c1cnc(Nc3ccc(Cl)cc3)nc1CC2
25.3	1.7	27.6						Nc1ncc2c(n1)-c1cnc(Nc3ccccc3)nc1CC2

Continued, molecule first:

Structure (SMILES)	IC50 [1] [µM]	IC50 [2] [µM]	IC50 [3] [µM]	IC50 [4] [µM]	IC50 [5] [µM]	IC50 [6] [µM]	IC50 [7] [µM]	IC50 [8] [µM]
CSc1ncc2c(n1)CCc1cnc(Nc3ccccc3)nc1-2	12.7	0.41	15.6					
Clc1ccc(Nc2ncc3c(n2)-c2cnc(Nc4ccccc4)nc2CC3)cc1	26.3	2.03	23.5					
CSc1ncc2c(n1)CCc1cnc(Nc3ccc(F)cc3)nc1-2	7.9	0.35	8.4					
CSc1ncc2c(n1)CCc1cnc(Nc3ccc(C(=O)N(C)CCN(C)C)cc3)nc1-2	1.4	0.09	1.1	0.68	> 5	> 5	1.25	3.6
CSc1ncc2c(n1)CCc1cnc(Nc3ccc(C(=O)NC4CCCC4)cc3)nc1-2	9.1	1.26	6.5					
c1ccc(Nc2ncc3c(n2)CCc2cnc(Nc4ccccc4)nc2-3)cc1	18.1	1.54	20.6					
CC(C)(C)c1cnc(CSc2cnc(NC(=O)C3CCNCC3)s2)o1 [BMS-387032]	0.7		1					
CSc1ncc2c(n1)CCc1cnc(Nc3ccc(C(=O)N(C)C)cc3)nc1-2	5.3	0.53	3.7					
CSc1ncc2c(n1)CCc1cnc(Nc3ccc(Cl)cc3)nc1-2	8.3	0.38	7					
CSc1ncc2c(n1)CCc1cnc(Nc3ccc(N)cc3)nc1-2	1.6	0.16	1.4					
